Here are results for one compound from US11993576B2, “N-benzyl-N-arylsulfonamide derivative and preparation and use thereof” (Hangzhou Yirui Pharmaceutical Technology Co., Ltd, priority 2019, dated 2024).

Assay [1] has as its target human Kv1.3 (Homo sapiens, UniProt P22001). Briefly: Conventional patch clamp assay of inhibitory activity against Kv1.3. Type of assay: cell-based. The settings on record: conventional patch-clamp method; CHO-K1 cells stably expressing human Kv1.3. The text has this:
II. Conventional Patch Clamp Assay of Inhibitory Activity Against Kv1.3
In order to compare the influence of different assay methods on the inhibitory activity of a compound, the conventional patch clamp method was used to assay the inhibitory activities of compounds 21, 37, 44, 61 against Kv1.3. The principle and method for the conventional patch clamp method can be found in Grissmer et al. [Grissmer et al. Molecular Pharmacology 1994, 45:1227-1234].
Inhibitory activity of the compounds against Kv1.3 was assessed using a CHO-K1 recombinant cell line stably expressing human Kv1.3 (Charles River, California). The cells were cultured in an F-12K culture medium containing 5% calf serum (Invitrogen, Carlsbad.ca) in an incubator at 37° C. and under air humidity with 6% CO2.
(§1) During the experiment, adherent cells were placed in a recording chamber under an inverted microscope. All the experiments were performed at room temperature. Each of the cells used itself as the control.
(§2) The test compounds were formulated to their final concentrations on the day of assay, and then dissolved in an extracellular fluid. The extracellular fluid (mM) was: NaCl, 137; KCl, 4; CaCl2, 1.8; MgCl2, 1; HEPES, 10; glucose 10; pH 7.4 (NaOH titration). All the solutions of the test compounds and the control compounds contained 0.3% of DMSO.
Each of the compounds was perfused by a gravity-driven perfusion system. At least two cells were tested for each of the concentrations of a compound. After the current was stable, the blocking effect of the compounds was calculated by comparing the change in the current before and after administration of the compounds. 1000 μM 4-AP was used as a positive control.
(§3) The cells were transferred to a perfusion chamber, and were perfused with the extracellular fluid. Intracellular fluid (mM): K-aspartate, 130; MgCl2, 5; EGTA 5; HEPES, 10; pH 7.2 (KOH titration). The intracellular fluid was stored in a small amount in a refrigerator at −80° C. in batches, and was thawed on the day of the experiment. The electrodes were drawn by PC-10 (Narishige, Japan). A whole-cell patch-clamp recording was performed, with the noise being filtered by one-fifth of the sampling frequency.
The cells were clamped at −80 mV and then depolarized to 0 mV with square waves lasting for 2 seconds to obtain a Kv1.3 current. This process was repeated every 20 seconds. The maximum current elicited by the square waves was detected. After the maximum current became stable, the test compounds were perfused. After the reaction was stable, the blocking strength was calculated.
Data was collected and analyzed using pCLAMP 10 (Molecular Devices, Union City, CA). A stable current meant a current which varies within a limited range over time. […]

Assay [2] deals with human Kv1.5 (Homo sapiens, UniProt P22460). Briefly: Conventional patch clamp assay of inhibitory activity against Kv1.5. Type of assay: cell-based. The settings on record: conventional patch-clamp method; CHO-K1 cells stably expressing human Kv1.5. The protocol:
III. Conventional Patch Clamp Assay of Inhibitory Activity Against Kv1.5
The principle and method for the conventional patch clamp method can be found in Grissmer et al. [Grissmer et al. Molecular Pharmacology 1994, 45:1227-1234].
Inhibitory activity of a compounds against Kv1.5 was assessed using a CHO-K1 recombinant cell line stably expressing human Kv1.5 (Charles River, Calif.). The cells were cultured in an F-12K culture medium containing 5% calf serum (Invitrogen, Carlsbad.ca) in an incubator at 37° C. and under air humidity with 6% CO2.
as §1, §2
Each of the compounds was perfused by a gravity-driven perfusion system. At least two cells were tested for each of the concentrations of a compound. After the current was stable, the blocking effect of the compounds was calculated by comparing the change in the current before and after administration of the compounds.
1000 μM 4-AP was used as a positive control.
as §3
The cells were clamped at −80 mV and then depolarized to 20 mV with square waves lasting for 2 seconds to obtain a Kv1.5 current. This process was repeated every 20 seconds. The maximum current elicited by the square waves was detected. After the maximum current became stable, the test compounds were perfused. After the reaction was stable, the blocking strength was calculated.
Data was collected and analyzed using pCLAMP 10 (Molecular Devices, Union City, CA). A stable current meant a current which varies within a limited range over time. The value of the stable current was used to calculate the effect of a compound at this […].

Assay [3] deals with rat model of allergic contact dermatitis (ACD). Description: Rat model of allergic contact dermatitis (ACD model) induced by DNCB. Type of assay: in vivo. The settings on record: SD female rats, 5%, 1.5%, 0.5% applied to right ear by wiping three times a day, 4 days, FIG. 1. The protocol:
IV. Effects of Compound 37 on a Rat Model of Allergic Contact Dermatitis (ACD Model) 1. Laboratory Animal
SPF SD female rats with body weight of 130-150 g were used.
Dexamethasone (DXMS) sodium phosphate injection, 5 mg/ml/injection (Shiyao Yinhu Pharmaceutical Co., Ltd.); 1-chloro-2,4-dinitrobenzene (DNCB) (TCI Shanghai); vehicle and negative control: acetone/DMSO 9:1 (Vehicle, Model group).
3.1 The animals were randomly divided into 6 groups based on body weight with 10 animals per group: blank control group, model control group, positive control group (dexamethasone sodium phosphate injection 5 mg/mL), 5% Compound 37 group, 1.5% Compound 37 group and 0.5% Compound 37 group.
3.2 Modeling and administration: a rat model of allergic contact dermatitis (ACD) was established by sensitizing and stimulating the rat's skin with a DNCB solution in acetone and DMSO (acetone-DMSO 9:1). The rats were normally fed in a SPF barrier system for 1 week. Long hair was removed with a razor and short hair was removed with depilatory cream within an area of about 2 cm×2 cm from abdomen of the rats one day before the experiment. […]
3.3 Measurement of difference between ear thicknesses: before the stimulation and after the final administration, the thickness of central parts of left and right ears of the rats in each of the groups was measured with electronic digital calipers. […]

Chain of human Kv1.3 (P22001 whole entry): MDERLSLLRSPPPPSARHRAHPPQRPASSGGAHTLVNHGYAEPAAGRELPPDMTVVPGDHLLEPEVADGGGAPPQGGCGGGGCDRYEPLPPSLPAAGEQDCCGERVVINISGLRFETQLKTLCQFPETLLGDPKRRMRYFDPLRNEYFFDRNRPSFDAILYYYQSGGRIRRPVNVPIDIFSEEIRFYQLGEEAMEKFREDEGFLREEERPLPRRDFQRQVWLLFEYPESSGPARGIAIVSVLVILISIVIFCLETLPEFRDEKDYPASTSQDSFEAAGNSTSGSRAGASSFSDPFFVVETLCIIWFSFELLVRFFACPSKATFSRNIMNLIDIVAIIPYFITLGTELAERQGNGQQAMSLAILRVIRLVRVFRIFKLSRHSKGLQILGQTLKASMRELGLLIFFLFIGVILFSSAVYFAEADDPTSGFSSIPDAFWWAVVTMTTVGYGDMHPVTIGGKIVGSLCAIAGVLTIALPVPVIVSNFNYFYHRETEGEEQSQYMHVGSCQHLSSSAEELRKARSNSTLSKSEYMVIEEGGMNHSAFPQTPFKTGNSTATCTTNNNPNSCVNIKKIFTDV
Chain of human Kv1.5 (P22460 whole entry): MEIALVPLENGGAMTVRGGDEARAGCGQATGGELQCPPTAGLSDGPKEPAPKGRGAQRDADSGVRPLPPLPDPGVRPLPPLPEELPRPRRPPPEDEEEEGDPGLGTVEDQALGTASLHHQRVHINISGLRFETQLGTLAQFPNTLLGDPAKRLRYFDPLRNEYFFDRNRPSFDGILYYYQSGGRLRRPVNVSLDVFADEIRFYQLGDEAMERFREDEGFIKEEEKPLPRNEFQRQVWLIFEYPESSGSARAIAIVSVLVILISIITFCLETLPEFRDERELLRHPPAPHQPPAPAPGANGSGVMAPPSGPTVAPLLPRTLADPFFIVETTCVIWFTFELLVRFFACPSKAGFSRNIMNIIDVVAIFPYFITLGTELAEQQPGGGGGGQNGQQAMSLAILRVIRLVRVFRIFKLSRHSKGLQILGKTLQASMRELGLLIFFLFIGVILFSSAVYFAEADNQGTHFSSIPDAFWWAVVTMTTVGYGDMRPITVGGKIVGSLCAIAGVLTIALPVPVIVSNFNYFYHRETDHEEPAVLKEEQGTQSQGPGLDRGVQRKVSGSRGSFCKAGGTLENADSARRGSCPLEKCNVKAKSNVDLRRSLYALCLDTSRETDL

On to `CC(C)CS(=O)(=O)N(Cc1ccc(F)cc1)c1ccc(N2CCN(C(=O)N(C)C)CC2)c(C#N)c1` [Compound 37, 4-(2-cyano-4-((N-(4-fluorobenzyl)-2-methylpropyl)sulfonamido)phenyl)-N,N-dimethylpiperazin-1-formamide], for which the IC50 was determined as 108 nM in assay [1] and 3650 nM in assay [2]. Further, the “ear inflammation (difference between ear thicknesses)” value in assay [3] was “significantly reduced ear inflammation”.

One may read the IC50 as the concentration that gives 50% inhibition. Read a high IC50 as a need for much substance.
